The test system of this assay is TLR9-MyD88 CHO cells, cytotoxicity, luminescence. Briefly: CHO cell viability loss, potency, luminescence, cytotoxicity control for TLR9-MyD88 binding inhibitor project, dose response (AID 588339).

The source made the active and inactive calls. The rule behind the calls is not given here.

The IC50 is the concentration at which inhibition is half-maximal. With `C[CH2][Hg][S]c1ccccc1C(=O)O`, the IC50 was 0.921 µM. For `COc1cc(/C=C/C(=O)/C=C(O)/C=C/c2ccc(O)c(OC)c2)ccc1O`, the IC50 is 34.6 µM (inactive).
